Results from patent US20240166652A1, “MODULATORS OF THE INTEGRATED STRESS PATHWAY” (Calico Life Sciences LLC, priority 2017, published 2024).

System: ATF4 luciferase reporter in HEK293T cells
Assay: ATF4-Luc assay (ATF4 luciferase reporter, tunicamycin-treated HEK293T cells)
Assay type: cell-based, human
Settings: Homo sapiens, HEK-293T; HEK293T cells carrying the ATF4 luciferase reporter, 1 μg/mL tunicamycin, 7 hours

O=C(COc1ccc(Cl)c(F)c1)NC12CC(NC(=O)Cc3ccc(C(F)(F)F)nc3)(C1)C2 [Compound 342, 2-(4-chloro-3-fluorophenoxy)-N-(3-{2-[6-(trifluoromethyl)pyridin-3-yl]acetamido}bicyclo[1.1.1]pentan-1-yl)acetamide]
EC50: 250 to 500 nM

N#Cc1ccc(CNC23CCC(NC(=O)COc4ccc(Cl)c(F)c4)(CC2)CC3O)cc1 (centres unmarked) [Compound 343, 2-(4-chloro-3-fluorophenoxy)-N-(4-{[(4-cyanophenyl)methyl]amino}-3-hydroxybicyclo[2.2.2]octan-1-yl)acetamide]
EC50: 50 to 250 nM

CS(=O)(=O)OC1CC2(NC(=O)COc3ccc(Cl)c(F)c3)CCC1(NC(=O)COc1ccc(Cl)c(F)c1)CC2 (centres unmarked) [Compound 344, 1,4-bis[2-(4-chloro-3-fluorophenoxy)acetamido]bicyclo[2.2.2]octan-2-yl methanesulfonate]
EC50: < 10 nM

O=C(COc1ccc(Cl)c(F)c1)NC12CCC(NC(=O)COc3ccc(F)cc3)(CC1)C(O)C2 (centres unmarked) [Compound 345, 2-(4-chloro-3-fluorophenoxy)-N-{4-[2-(4-fluorophenoxy)acetamido]-3-hydroxybicyclo[2.2.2]octan-1-yl}acetamide]
EC50: < 10 nM

O=C(/C=C/c1ccc(C(F)(F)F)cc1)NC12CC(NC(=O)COc3ccc(Cl)c(F)c3)(C1)C2 [Compound 346, (2E)-N-{3-[2-(4-chloro-3-fluorophenoxy)acetamido]bicyclo[1.1.1]pentan-1-yl}-3-[4-(trifluoromethyl)phenyl]prop-2-enamide]
EC50: 50 to 250 nM

COc1ccc(/C=C/C(=O)NC23CC(NC(=O)COc4ccc(Cl)c(F)c4)(C2)C3)cc1 [Compound 347, (2E)-N-{3-[2-(4-chloro-3-fluorophenoxy)acetamido]bicyclo[1.1.1]pentan-1-yl}-3-(4-methoxyphenyl)prop-2-enamide]
EC50: 250 to 500 nM

O=C(/C=C/c1ccc(Cl)c(Cl)c1)NC12CC(NC(=O)COc3ccc(Cl)c(F)c3)(C1)C2 [Compound 348, (2E)-N-{3-[2-(4-chloro-3-fluorophenoxy)acetamido]bicyclo[1.1.1]pentan-1-yl}-3-(3,4-dichlorophenyl)prop-2-enamide]
EC50: 10 to 50 nM

O=C(/C=C/c1ccccn1)NC12CC(NC(=O)COc3ccc(Cl)c(F)c3)(C1)C2 [Compound 349, (2E)-N-{3-[2-(4-chloro-3-fluorophenoxy)acetamido]bicyclo[1.1.1]pentan-1-yl}-3-(pyridin-2-yl)prop-2-enamide]
EC50: 500 to 2000 nM

O=C(/C=C/c1cccc(Cl)c1)NC12CC(NC(=O)COc3ccc(Cl)c(F)c3)(C1)C2 [Compound 350, (2E)-N-{3-[2-(4-chloro-3-fluorophenoxy)acetamido]bicyclo[1.1.1]pentan-1-yl}-3-(3-chlorophenyl)prop-2-enamide]
EC50: 50 to 250 nM

O=C(/C=C/c1ccc(C(F)(F)F)nc1)NC12CC(NC(=O)COc3ccc(Cl)c(F)c3)(C1)C2 [Compound 351, (2E)-N-{3-[2-(4-chloro-3-fluorophenoxy)acetamido]bicyclo[1.1.1]pentan-1-yl}-3-[6-(trifluoromethyl)pyridin-3-yl]prop-2-enamide]
EC50: 250 to 500 nM

O=C(/C=C/c1cccnc1)NC12CC(NC(=O)COc3ccc(Cl)c(F)c3)(C1)C2 [Compound 352, (2E)-N-{3-[2-(4-chloro-3-fluorophenoxy)acetamido]bicyclo[1.1.1]pentan-1-yl}-3-(pyridin-3-yl)prop-2-enamide]
EC50: 500 to 2000 nM

O=C(COc1cncc(C(F)(F)F)c1)NC12CCC(NC(=O)COc3ccc(Cl)c(F)c3)(C1)C2 [Compound 355, 2-(4-chloro-3-fluorophenoxy)-N-[4-(2-{[5-(trifluoromethyl)pyridin-3-yl]oxy}acetamido)bicyclo[2.1.1]hexan-1-yl]acetamide]
EC50: 50 to 250 nM

O=C(Cc1ccc(C(F)(F)F)cn1)NC12CCC(NC(=O)COc3ccc(Cl)c(F)c3)(CC1)C(O)C2 (centres unmarked) [Compound 356, 2-(4-chloro-3-fluorophenoxy)-N-(2-hydroxy-4-{2-[5-(trifluoromethyl)pyridin-2-yl]acetamido}bicyclo[2.2.2]octan-1-yl)acetamide]
EC50: 10 to 50 nM

NC1CC2(NC(=O)COc3ccc(Cl)c(F)c3)CCC1(NC(=O)COc1ccc(Cl)c(F)c1)CC2 (centres unmarked) [Compound 357, N,N′-(2-aminobicyclo[2.2.2]octane-1,4-diyl)bis[2-(4-chloro-3-fluorophenoxy)acetamide]]
EC50: < 10 nM

CC(=O)NC1CC2(NC(=O)COc3ccc(Cl)c(F)c3)CCC1(NC(=O)COc1ccc(Cl)c(F)c1)CC2 (centres unmarked) [Compound 358, N,N′-(2-acetamidobicyclo[2.2.2]octane-1,4-diyl)bis[2-(4-chloro-3-fluorophenoxy)acetamide]]
EC50: < 10 nM

O=C(COc1ccc(F)c(F)c1)NC12CCC(NC(=O)COc3ccc(C(F)(F)F)nc3)(CC1)C(O)C2 (centres unmarked) [Compound 359, 2-(3,4-difluorophenoxy)-N-[3-hydroxy-4-(2-{[6-(trifluoromethyl)pyridin-3-yl]oxy}acetamido)bicyclo[2.2.2]octan-1-yl]acetamide]
EC50: 10 to 50 nM

O=C(COc1ccc(Cl)c(F)c1)NC12CC(NC(=O)Cc3noc4ccccc34)(C1)C2 [Compound 360, 2-(1,2-benzoxazol-3-yl)-N-{3-[2-(4-chloro-3-fluorophenoxy)acetamido]bicyclo[1.1.1]pentan-1-yl}acetamide]
EC50: > 2000 nM

O=C(COc1ccc(Cl)c(F)c1)NC12CC(NC(=O)Cc3cccc(OC(F)(F)F)c3)(C1)C2 [Compound 361, 2-(4-chloro-3-fluorophenoxy)-N-(3-{2-[3-(trifluoromethoxy)phenyl]acetamido}bicyclo[1.1.1]pentan-1-yl)acetamide]
EC50: > 2000 nM

O=C(COc1ccc(F)c(F)c1)NC12CCC(NC(=O)COc3ccc4c(c3)OC(F)(F)O4)(CC1)C(O)C2 (centres unmarked) [Compound 362, 2-[(2,2-difluoro-2H-1,3-benzodioxol-5-yl)oxy]-N-{4-[2-(3,4-difluorophenoxy)acetamido]-2-hydroxybicyclo[2.2.2]octan-1-yl}acetamide]
EC50: < 10 nM

O=C(COc1ccc(F)c(F)c1)NC12CCC(NC(=O)COc3ccc(F)c(F)c3)(CC1)C(O)C2 (centres unmarked) [Compound 363, N,N′-(2-hydroxybicyclo[2.2.2]octane-1,4-diyl)bis[2-(3,4-difluorophenoxy)acetamide]]
EC50: < 10 nM

O=C(COc1ccc(F)c(F)c1)NC12CCC(NC(=O)COc3ccc(F)cc3)(CC1)C(O)C2 (centres unmarked) [Compound 364, 2-(3,4-difluorophenoxy)-N-{4-[2-(4-fluorophenoxy)acetamido]-3-hydroxybicyclo[2.2.2]octan-1-yl}acetamide]
EC50: < 10 nM

O=C(COc1ccc(Cl)c(F)c1)NC12CCC(NC(=O)COc3ccc(Cl)c(F)c3)(CC1)C(F)C2 (centres unmarked) [Compound 365, N,N′-(2-fluorobicyclo[2.2.2]octane-1,4-diyl)bis[2-(4-chloro-3-fluorophenoxy)acetamide]]
EC50: < 10 nM

O=C(COc1ccc(Cl)c(F)c1)NC12CCC(NC(=O)COc3ccc(C(F)(F)F)nc3)(CC1)C(F)C2 (centres unmarked) [Compound 366, 2-(4-chloro-3-fluorophenoxy)-N-[3-fluoro-4-(2-{[6-(trifluoromethyl)pyridin-3-yl]oxy}acetamido)bicyclo[2.2.2]octan-1-yl]acetamide]
EC50: 10 to 50 nM

O=C(/C=C/c1ccc(Cl)c(Cl)c1)NC12CC(NC(=O)/C=C/c3ccc(Cl)c(Cl)c3)(C1)C2 [Compound 367, (2E,2′E)-N,N′-(bicyclo[1.1.1]pentane-1,3-diyl)bis[3-(3,4-dichlorophenyl)prop-2-enamide]]
EC50: > 2000 nM

O=C(COc1ccc(Cl)cc1)NC12CC(NC(=O)COc3ccc(Cl)c(F)c3)(C1)C2 [Compound 368, 2-(4-chloro-3-fluorophenoxy)-N-{3-[2-(4-chlorophenoxy)acetamido]bicyclo[1.1.1]pentan-1-yl}acetamide]
EC50: < 10 nM

Cn1nc(C(F)(F)F)cc1OCC(=O)NC12CC(NC(=O)COc3ccc(Cl)c(F)c3)(C1)C2 [Compound 369, 2-(4-chloro-3-fluorophenoxy)-N-[3-(2-{[1-methyl-3-(trifluoromethyl)-1H-pyrazol-5-yl]oxy}acetamido)bicyclo[1.1.1]pentan-1-yl]acetamide]
EC50: > 2000 nM

O=C(/C=C/c1ccc(C(F)(F)F)cc1)NC12CC(NC(=O)/C=C/c3ccc(C(F)(F)F)cc3)(C1)C2 [Compound 370, (2E,2′E)-N,N′-(bicyclo[1.1.1]pentane-1,3-diyl)bis{3-[4-(trifluoromethyl)phenyl]prop-2-enamide}]
EC50: > 2000 nM

O=C(COc1ccc(Cl)c(F)c1)NC12CC(NC(=O)COc3ccnn3C3CC3)(C1)C2 [Compound 371, 2-(4-chloro-3-fluorophenoxy)-N-(3-{2-[(1-cyclopropyl-1H-pyrazol-5-yl)oxy]acetamido}bicyclo[1.1.1]pentan-1-yl)acetamide]
EC50: 250 to 500 nM

Cc1nn(C)c(C)c1OCC(=O)NC12CC(NC(=O)COc3ccc(Cl)c(F)c3)(C1)C2 [Compound 374, 2-(4-chloro-3-fluorophenoxy)-N-(3-{2-[(1,3,5-trimethyl-1H-pyrazol-4-yl)oxy]acetamido}bicyclo[1.1.1]pentan-1-yl)acetamide]
EC50: > 2000 nM

CN(C(=O)COc1ccc(Cl)c(F)c1)C12CCC(NC(=O)COc3ccc(Cl)c(F)c3)(CC1)C[C@@H]2O [Compound 375, 2-(4-chloro-3-fluorophenoxy)-N-{(2S)-4-[2-(4-chloro-3-fluorophenoxy)acetamido]-2-hydroxybicyclo[2.2.2]octan-1-yl}-N-methylacetamide]
EC50: 50 to 250 nM

O=C(/C=C/c1ccc(OC(F)(F)F)cn1)NC12CC(NC(=O)COc3ccc(Cl)c(F)c3)(C1)C2 [Compound 376, (2E)-N-{3-[2-(4-chloro-3-fluorophenoxy)acetamido]bicyclo[1.1.1]pentan-1-yl}-3-[5-(trifluoromethoxy)pyridin-2-yl]prop-2-enamide]
EC50: 250 to 500 nM

CN(C(=O)COc1ccc(C(F)(F)F)nc1)C12CCC(NC(=O)COc3ccc(Cl)c(F)c3)(CC1)C[C@@H]2O [Compound 377, N-{(2S)-4-[2-(4-chloro-3-fluorophenoxy)acetamido]-2-hydroxybicyclo[2.2.2]octan-1-yl}-N-methyl-2-{[6-(trifluoromethyl)pyridin-3-yl]oxy}acetamide]
EC50: 500 to 2000 nM
